{
  "source": "paper doi:10.1101/525105v1",
  "about": "(biorxiv, 2019)",
  "key": {"AMV RNase H": {"target": "AMV RNase H", "test": "RNase H assay", "format": "biochemical, Avian myeloblastosis virus", "settings": "conditions not printed for this enzyme"}, "[1]": {"target": "HIV-1 RT (Roche colorimetric reverse transcriptase assay kit) (HIV-1 M:B_HXB2R, UniProt P04585)", "test": "colorimetric RT polymerase assay", "format": "biochemical"}, "[2]": {"target": "HIV-1 integrase (XpressBio kit) (HIV-1 M:B_HXB2R, UniProt P04585)", "test": "HIV-1 integrase assay kit", "format": "biochemical"}, "E. coli RNase H": {"target": "T1, E. coli RNase H (Escherichia coli, UniProt P0A7Y4)", "T1 sequence (P0A7Y4 1-155)": "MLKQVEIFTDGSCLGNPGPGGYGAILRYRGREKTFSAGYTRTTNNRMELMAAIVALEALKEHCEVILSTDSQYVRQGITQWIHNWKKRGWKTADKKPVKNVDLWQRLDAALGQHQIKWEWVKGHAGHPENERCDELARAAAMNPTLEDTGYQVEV", "test": "RNase H assay", "format": "biochemical"}, "in vitro [3]": {"test": "in vitro", "settings": "human, tzm-bl cells"}, "HIV-1IIIB": {"test_system": "HIV-1IIIB", "test": "microbe, parasite or virus in culture", "design": "species or system LC5-RIC", "settings": "Human immunodeficiency virus 1, 48 h, read-out: IC50 HIV-1IIIB"}, "in vitro [4]": {"test": "in vitro", "settings": "human, lc5-ric cells"}},
  "data": [
    {"smiles": "CC(C)Oc1ccc2cccnc2c1-c1cccc2ccccc12", "note": "[B#24, 7-(Isopropyloxy)-8-(naphth-1-yl)quinoline]", "values": [
      {"measurement": "IC50", "setting": "AMV RNase H", "result": "> 100", "unit": "µM"},
      {"measurement": "IC50", "setting": "[1]", "result": "> 100", "unit": "µM"},
      {"measurement": "IC50", "setting": "[2]", "result": "> 100", "unit": "µM"},
      {"measurement": "IC50", "setting": "E. coli RNase H", "result": "44.3 ± 6.4", "unit": "µM"},
      {"measurement": "CC50", "setting": "in vitro [3]", "result": "68.5 ± 17.1", "unit": "µM"},
      {"measurement": "IC50", "setting": "HIV-1IIIB", "result": "7.6 ± 0.2", "unit": "µM"},
      {"measurement": "CC50 at 48 h", "setting": "in vitro [4]", "result": "86.5 ± 3.7", "unit": "µM"}
    ]},
    {"smiles": "CC(C)Oc1ccc2cccnc2c1-c1cccc2cccnc12", "note": "[B#57, 7-(Isopropyloxy)-8,8′-biquinolyl]", "values": [
      {"measurement": "IC50", "setting": "AMV RNase H", "result": "> 100", "unit": "µM"},
      {"measurement": "IC50", "setting": "[1]", "result": "> 100", "unit": "µM"},
      {"measurement": "IC50", "setting": "[2]", "result": "> 100", "unit": "µM"},
      {"measurement": "IC50", "setting": "E. coli RNase H", "result": "> 100", "unit": "µM"},
      {"measurement": "CC50", "setting": "in vitro [3]", "result": "> 200", "unit": "µM"},
      {"measurement": "IC50", "setting": "HIV-1IIIB", "result": "> 200", "unit": "µM"},
      {"measurement": "CC50 at 48 h", "setting": "in vitro [4]", "result": "> 200", "unit": "µM"}
    ]},
    {"smiles": "CCN(CC)C(=O)Oc1ccc2cccnc2c1-c1cccc2cccnc12", "note": "[B#58, 7-[(Diethylamino)carbonyloxy]-8,8'-biquinolyl]", "values": [
      {"measurement": "CC50", "setting": "in vitro [3]", "result": "> 200", "unit": "µM"},
      {"measurement": "IC50", "setting": "HIV-1IIIB", "result": "> 200", "unit": "µM"}
    ]},
    {"smiles": "CC(C)Oc1ccc2ccccc2c1-c1cccc2cccnc12", "note": "[B#59, 2-(Isopropyloxy)-1-(quinol-8-yl)naphthalene]", "values": [
      {"measurement": "CC50", "setting": "in vitro [3]", "result": "> 100", "unit": "µM"},
      {"measurement": "IC50", "setting": "HIV-1IIIB", "result": "39.5 ± 1.7", "unit": "µM"},
      {"measurement": "CC50 at 48 h", "setting": "in vitro [4]", "result": "144 ± 7.7", "unit": "µM"}
    ]},
    {"smiles": "CCN(CC)OC(=O)c1ccc2ccccc2c1-c1cccc2cccnc12", "note": "[B#60, 2-[(Diethylamino)oxycarbonyl]-1-(quinol-8-yl)naphthalene]", "values": [
      {"measurement": "CC50", "setting": "in vitro [3]", "result": "69.3 ± 4.9", "unit": "µM"},
      {"measurement": "IC50", "setting": "HIV-1IIIB", "result": "50.1 ± 3.7", "unit": "µM"},
      {"measurement": "CC50 at 48 h", "setting": "in vitro [4]", "result": "71.4 ± 2.8", "unit": "µM"}
    ]},
    {"smiles": "Cc1cc(/C=C/C#N)cc(C)c1Nc1ccnc(Nc2ccc(C#N)cc2)n1", "note": "[rilpivirine, reference compound]", "values": [
      {"measurement": "IC50", "setting": "AMV RNase H", "result": "> 10", "unit": "µM"},
      {"measurement": "IC50", "setting": "[1]", "result": "~0.001", "unit": "µM"},
      {"measurement": "IC50", "setting": "E. coli RNase H", "result": "> 10", "unit": "µM"}
    ]}
  ]
}
